# Values of other authors as cited in patent US10206934B2, “Implants and methods for treating inflammation-mediated conditions of the eye” (Allergan, Inc., priority 2000, dated 2019).
# Conditions: fold less potent; 25 mg equivalent to 1 mg dexamethasone
smiles,measurement,value
C[C@]12CCC(=O)C=C1CC[C@@H]1[C@@H]2[C@@H](O)C[C@@]2(C)[C@H]1CC[C@]2(O)C(=O)CO [hydrocortisone],Potency relative to dexamethasone,approximately twentyfivefold
